Experimental data reported in US7767817B2, “Water soluble boronic acid fluorescent reporter compounds and methods of use thereof” (priority 2003, dated 2010).
Where two headings read alike, the source gives them in different places.

Experiments:
[1] = Stability noted at isolation; type: physicochemical; details: after TFA deprotection, no further purification
Description: (7). To a solution of 6 (0.2501 g, 0.79 mmol) in DCM (20 mL) was added TFA (5 mL). The solution was stirred for 1 h, and then concentrated in vacuum to give a yellow oil.

[2] = Fluorescence intensity pH profile (apparent pKa); type: physicochemical
Description: Since the fluorescence intensity increase upon binding with a sugar seems to be a general phenomenon, the fluorescence change mechanism of compound 5 at pH 7.4 was investigated. For this purpose, the fluorescence pH profiles of both compound 5 alone and compound 5 in the presence of fructose (0.5 M) were studied. The fluorescence intensity of 5 at 334 nm in the absence of sugars decreased upon changing the pH from 3 to 12 (FIG. 3). An apparent pKa of 7.0 was observed, which is assigned to the boronic acid moiety. […] It is well-known that the binding of a diol to boronic acid often lowers the pKa of the boron species) (Springsteen, G.; Wang, B. Tetrahedron 2002, 58, 5291-5300). Therefore, the pKa, which drops from 7.0 to 4.0, can also be reasonably assigned to boron. […] It seems that the fluorescence intensity change of compound 5 is also due to diol's perturbation as that of 8-quinolineboronic acid.
To examine the relationship between the fluorescence intensity changes and the boron ionization states, the pH profile of the fluorescence intensity in the absence and presence of fructose and glucose at a fixed concentration (50 mM) was also studied (FIG. 6). […] It is worth mentioning that the pKa of the protonated dimethyl amino group of 1 is […] the emission wavelength of 1 with the protonated dimethyl amino group at low pH is about 238 nm. Therefore, the fluorescence intensity of 1 at 445 nm was not affected by the protonated dimethyl amino group. The fluorescence intensity changes correspond to the boronic acid pKa (9.4) and therefore hybridization changes, which was responsible for the fluorescence intensity changes observed.
Since the fluorescence intensity increase upon binding with a sugar seems to be a general phenomenon, next the conditions under which optimal fluorescence intensity changes are observed upon addition of a sugar was investigated. For this purpose, the fluorescence pH profiles of both compound 6 alone and in the presence of fructose (0.5 M) were studied. The fluorescence intensity of 6 in the absence of sugars increased by 17-fold upon changing the pH from 3 to 12 (FIG. 10). […] Furthermore, one would expect the pKa values of the other two ionizable groups, the carboxylic acid and the quinolinium groups, to be less than 7. Therefore, assigning the pKa at 7.9 to the boronic acid moiety is the most reasonable option. […] It is well-known that the binding of a diol to boronic acid often lowers the pKa of the boron species. […] Upon addition of fructose, the pKa of the boron drops to about 5.2, which ensures that most of the boron species are in the anionic tetrahedral state at physiological pH.
Since the fluorescence intensity increase upon binding with a sugar seems to be a general phenomenon, the use of 5-QBA functions as a fluorescent probe for diols was investigated. The fluorescence pH profiles of both 5-QBA alone and 5-QBA in the presence of D-fructose (0.5 M) were investigated. […] In order to assign each pKa, the ^11B NMR spectra of 5-QBA and its ester in a mixed deuterated methanol-water (1:1) solvent at different pH were obtained. Methanol was used so that the concentration of 5-QBA can be increased to 57 mM so as to allow for a meaningful NMR determination within a reasonable period of time.
To understand the structural features associated with the fluorescence intensity changes, we studied the pH profiles of the fluorescence intensity in the absence (FIG. 18) and presence of fructose and glucose at a fixed concentration (50 mM). […] The fluorescence intensity at 513 nm increased very quickly when pH increased from 1.78 to 7.04 (thin lines in FIG. 18), and then decreased in the pH range of 7.04-10.54 (thick lines in FIG. 18).

[3] = Fluorescence binding study with sorbitol
Description: (§1) For a typical sugar-BTBA fluorescent measurement, a 1.0×10^−5 M stock solution of BTBA in 0.10 M phosphate buffer at pH 7.4 was made as solution A. […] Solution B was titrated into solution A in order to make mixtures with a constant concentration of BTBA and a range of concentrations of the sugar. Each mixture was allowed to stand for at least 10 min, then 3.0 mL of the mixture was transferred into a cuvette for fluorescence measurement.
(§2) The association constants (Ka) were determined according to the method III in Valeur's publication (J. Phys. Chem. 1988, 92, 6233).

[4] = Fluorescence binding study with tagatose
Description: as §1, §2

[5] = Fluorescence binding study with fructose
Description: as §1, §2

[6] = Fluorescence binding study with glucose
Description: as §1, §2

[7] = Fluorescence binding study with galactose
Description: as §1, §2

[8] = Fluorescence quantum yield; type: physicochemical
Description: The effect of various carbohydrates on the fluorescent properties of compound 1 was determined in phosphate buffer at pH 7.4. The emission spectral change of 1 with fructose at different concentrations in 0.1 M aqueous phosphate buffer (pH 7.4) is shown in FIG. 4. A 41-fold emission intensity increase is observed in presence of 50 mM fructose. To the best of our knowledge, such a large emission intensity increase has never been reported for boronic acid-based saccharide sensors involving the ICT mechanism. The quantum yields of 1 in the absence (φF=0.010) and in the presence of 50 mM fructose (φF=0.42) in 0.1 M phosphate buffer (pH 7.4) were obtained using 8-quinoline boronic acid (φF=0.58 in 12 M H2SO4) as a reference compound.
For example, addition of fructose (50 mM) to the solution of 7 induced a 36-fold fluorescence intensity increase at 433 nm and a 0.55-fold fluorescence intensity decrease at 513 nm (FIG. 14). […] To the best of our knowledge, such large emission intensity changes at two wavelengths have never been reported for boronic acid-based saccharide sensors. The quantum yields (φF) of 7 were determined as 0.07 at 513 nm in 0.1 M phosphate buffer (pH 7.4) in the absence of a sugar and 0.23 at 433 nm in the presence of 50 mM of fructose, using 8-quinoline boronic acid (φF=0.58 in 12 M H2SO4) as a reference compound.

[9] = 0.1 M phosphate buffer pH 7.4, 1:1 complex assumed
[10] = tagatose 0.05 M, pH 7.4, λex 300 nm
[11] = fructose 0.05 M, pH 7.4, λex 300 nm
[12] = glucose 1.0 M, pH 7.4, λex 300 nm
[13] = galactose 0.50 M, pH 7.4, λex 300 nm

## CN(C)c1cccc2c(B(O)O)cccc12 [Compound 7, 5-(Dimethylamino)-naphthalene-1-boronic acid]
[1]
  stability: not stable in neutral
[2]; 0.1 M aqueous phosphate buffer with 50 mM glucose, presence of glucose, intensity at 335 nm, read-out: first apparent pKa (aniline group)
  pKa: 5.1
[2]; 0.1 M aqueous phosphate buffer, compound alone, intensity at 335 nm, read-out: first apparent pKa (aniline group)
  pKa: 5.1
[2]; 0.1 M phosphate buffer, absence of sugar, 0.1 M phosphate buffer, read-out: apparent pKa assigned to the boronic acid moiety
  pKa: ~9
[3]; [9]
  Association constant (Ka) with sorbitol: 337 ± 5 M⁻¹
[3]; sorbitol 0.05 M, pH 7.4, λex 300 nm
  fluorescence intensity change ΔI/I0 at 513 nm: −0.48 (0.05)
[3]; sorbitol 0.20 M, pH 7.4, λex 300 nm
  fluorescence intensity change ΔI/I0 at 433 nm: 42 (0.20)
[3]; sorbitol 200 mM, physiological pH
  fluorescence intensity increase at 433 nm: 42 fold
[4]; [9]
  Association constant (Ka) with tagatose: 229 ± 3 M⁻¹
[4]; [10]
  fluorescence intensity change ΔI/I0 at 433 nm: 37 (0.05)
  fluorescence intensity change ΔI/I0 at 513 nm: −0.55 (0.05)
[4]; tagatose, physiological pH
  fluorescence intensity increase at 433 nm: about 36 fold
[5]; 50 mM fructose versus no sugar
  change of the ratio I433/I513: 84 fold
[5]; [9]
  Association constant (Ka) with fructose: 311 ± 4 M⁻¹
[5]; before addition of a sugar, pH 7.4
  emission intensity ratio at 433 and 513 nm (I433/I513): 0.11
[5]; [11]
  fluorescence intensity change ΔI/I0 at 433 nm: 36 (0.05)
  fluorescence intensity change ΔI/I0 at 513 nm: −0.61 (0.05)
[5]; fructose 50 mM, phosphate buffer pH 7.4
  fluorescence intensity decrease at 513 nm: 0.55 fold
[5]; upon addition of 0.1 mM fructose
  emission intensity ratio at 433 and 513 nm (I433/I513): 0.23
[6]; [9]
  Association constant (Ka) with glucose: 3.6 ± 0.1 M⁻¹
[6]; [12]
  fluorescence intensity change ΔI/I0 at 433 nm: 23 (1.0)
  fluorescence intensity change ΔI/I0 at 513 nm: −0.54 (1.0)
[6]; glucose 1 M, physiological pH
  maximum fluorescence intensity increase at 433 nm: 23 fold
other
  melting point: 95 to 96 °C
[7]; [9]
  Association constant (Ka) with galactose: 23.0 ± 0.2 M⁻¹
[7]; [13]
  fluorescence intensity change ΔI/I0 at 433 nm: 36 (0.50)
  fluorescence intensity change ΔI/I0 at 513 nm: −0.56 (0.50)
[7]; galactose, physiological pH
  fluorescence intensity increase at 433 nm: about 36 fold
[8]; absence of a sugar, 0.1 M phosphate buffer pH 7.4
  quantum yield φF at 513 nm: 0.07
[8]; presence of 50 mM fructose
  quantum yield φF at 433 nm: 0.23
